Data published in patent US4293489A, “Derivatives of A-30912A nucleus” (Eli Lilly and Company, priority 1980, dated 1981).
Starred links: 1 amine or outer side, 2 acyl side, 3 side chain; linkers in the order of their positions; H or OH if unused. Positions of bridges follow the written chain, without caps; N, C: chain ends. Non-standard residues stand in square brackets, D forms with d. Residues, ends and D or L forms follow the SMILES beside them. *: point of attachment. Orn(4R-OH,5R-OH) = O=C([C@H](C[C@@H](O)[C@@H](O)N[*:3])N[*:1])[*:2]; hTyr(3S-OH,4S-OH) = N[C@H](C(=O)O)[C@H](O)[C@@H](O)c1ccc(O)cc1; Benzoyl(4-OC10H21) = CCCCCCCCCCOc1ccc(C(=O)*)cc1; Pro(3S-OH,4S-Me) = C[C@H]1CN[C@H](C(=O)O)[C@H]1O; X4 = CCCCCCCCCCS(=O)(=O)c1ccc(C(=O)*)cc1; X23 = CCCCCCCCS(=O)(=O)c1ccc(C(=O)*)cc1; X22 = CCCCCCCCCCCCOc1ccc(CCC(=O)*)cc1; X18 = CCCCCCCCCCCCOc1ccc(CC(=O)*)cc1; X21 = CCCCCCCCOc1ccc(CCC(=O)*)cc1; Hyp = O=C(O)[C@@H]1C[C@@H](O)CN1; X14 = CCCCCCOc1ccc(C(=O)*)cc1; X17 = CCCCOc1ccc(CCC(=O)*)cc1

Legend:
Candida albicans A-26 [1] = assay: Agar plate disc diffusion test, MIC per disc; assay type: cell-based; conditions: 0.1M sodium borate, pH 7.5, 24 hours, 30° C.
Description: (§1) Tables 10 and 11 give the results of the testing in vitro of the compounds of Examples 3 and 4 by agar-plate disc-diffusion methods. In Table 10 activity is measured by the size (diameter in mm) of the observed zone of inhibition of the microorganism produced by the test compound. In Table 11, activity is measured by the minimal inhibitory concentration (MIC) of the substance (μg/disc) required to inhibit growth of the test organism. Table 12 gives the results of the testing in vitro of the p-(n-octyloxy)benzoyl derivative of A30912A nucleus [Formula III, R^1 is p-(n-octyloxy)benzoyl] against five strains of Candida albicans by the agar dilution method. In Table 12 activity is measured by the minimal inhibitory concentration (MIC) of the substance (μg/ml) required to inhibit the test organism.
(§2) ^(a) Compounds were suspended in 0.1M sodium borate solution, pH 7.5.
(§3) The compounds were tested at 20 μg/disc at top level and at twofold
(§4) dilutions until end points were reached. Incubation: 24 hours; 30°

[2] = system: Trychophyton mentagrophyes #6; assay: Agar plate disc diffusion test, MIC per disc; assay type: cell-based, Trichophyton mentagrophytes; conditions: 0.1M sodium borate, pH 7.5, 24 hours, 30° C., * measurable zones with regrowth of organism around disc
Description: as §1, §2, §3, §4
*Measurable zones of inhibition with regrowth of organism around disc.

Candida albicans A-26 [3] = assay: Therapeutic activity against Candida albicans A-26 infection in mice, ED50; assay type: in vivo; conditions: Candida albicans, A26, sc, doses 0, 4 and 24 hours post infection, increase in survival time vs control, Reed-Muench, read-out: ED50
Description: The results of in vivo tests to evaluate the effectiveness of the compounds of Examples 3 and 4 against an infection caused by Candida albicans A-26 in mice are given in Table 13, where activity is measured by the ED50 value (the dose in mg/kg. required to cure 50% of the test animals). In a separate test, the results of which are also summarized in Table 13, activity is indicated by the lowest dose at which a significant anti-fungal effect is observed. In this test, groups of male albino mice (specific pathogen free), weighing 18 to 20 grams, are infected intravenously with Candida albicans A-26. The animals are X-irradiated 24 hours prior to infection at about 50 roentgens per minute for 8 minutes (400 total dose) to reduce immune responses to the infecting organism. At 0, 4, and 24 hours post infection each group of mice is given graded doses subcutaneously of the test compound as a suspension in 33% polyethylene glycol (PEG)-water. The day of death for each animal is recorded.
*Dosage Schedules: A. = 40, 20, 15 and 10 mg/kg; Dosages given 0, 4, and
24 hours post injection as suspension of test compound in 30% PEGH2
O. Number of mice receiving test compounds at each dosage level: 6 mice
per group. Number of mice in control (untreated) group: 10 mice per group
**As measured by increase in survival time of treated animals versus
control, calculated by method of Reed v Mueuch, American J. Hygiene, 27,

SMILES	MIC (Candida albicans A-26 [1]) [μg/disc]	MIC [2] [μg/disc]	ED50 (Candida albicans A-26 [3]) [mg/kg]
CCCCCCCCCCCCOc1ccc(CC(=O)N[C@H]2C[C@@H](O)[C@@H](O)NC(=O)[C@@H]3[C@@H](O)[C@@H](C)CN3C(=O)[C@H]([C@@H](C)O)NC(=O)[C@H]([C@H](O)[C@@H](O)c3ccc(O)cc3)NC(=O)[C@@H]3C[C@@H](O)CN3C(=O)[C@H]([C@@H](C)O)NC2=O)cc1 [drawing 142] (X18-[Orn(4R-OH,5R-OH)]T[Hyp][hTyr(3S-OH,4S-OH)]T[Pro(3S-OH,4S-Me)]; lactam 1-C)	0.312	0.625	–
CCCCCCOc1ccc(C(=O)N[C@H]2C[C@@H](O)[C@@H](O)NC(=O)[C@@H]3[C@@H](O)[C@@H](C)CN3C(=O)[C@H]([C@@H](C)O)NC(=O)[C@H]([C@H](O)[C@@H](O)c3ccc(O)cc3)NC(=O)[C@@H]3C[C@@H](O)CN3C(=O)[C@H]([C@@H](C)O)NC2=O)cc1 [drawing 131] (X14-[Orn(4R-OH,5R-OH)]T[Hyp][hTyr(3S-OH,4S-OH)]T[Pro(3S-OH,4S-Me)]; lactam 1-C)	2.5	0.312	–
CCCCCCCCCCS(=O)(=O)c1ccc(C(=O)N[C@H]2C[C@@H](O)[C@@H](O)NC(=O)[C@@H]3[C@@H](O)[C@@H](C)CN3C(=O)[C@H]([C@@H](C)O)NC(=O)[C@H]([C@H](O)[C@@H](O)c3ccc(O)cc3)NC(=O)[C@@H]3C[C@@H](O)CN3C(=O)[C@H]([C@@H](C)O)NC2=O)cc1 [drawing 160] (X4-[Orn(4R-OH,5R-OH)]T[Hyp][hTyr(3S-OH,4S-OH)]T[Pro(3S-OH,4S-Me)]; lactam 1-C)	–	–	57
CCCCCCCCS(=O)(=O)c1ccc(C(=O)N[C@H]2C[C@@H](O)[C@@H](O)NC(=O)[C@@H]3[C@@H](O)[C@@H](C)CN3C(=O)[C@H]([C@@H](C)O)NC(=O)[C@H]([C@H](O)[C@@H](O)c3ccc(O)cc3)NC(=O)[C@@H]3C[C@@H](O)CN3C(=O)[C@H]([C@@H](C)O)NC2=O)cc1 [drawing 159] (X23-[Orn(4R-OH,5R-OH)]T[Hyp][hTyr(3S-OH,4S-OH)]T[Pro(3S-OH,4S-Me)]; lactam 1-C)	–	–	57
CCCCOc1ccc(CCC(=O)N[C@H]2C[C@@H](O)[C@@H](O)NC(=O)[C@@H]3[C@@H](O)[C@@H](C)CN3C(=O)[C@H]([C@@H](C)O)NC(=O)[C@H]([C@H](O)[C@@H](O)c3ccc(O)cc3)NC(=O)[C@@H]3C[C@@H](O)CN3C(=O)[C@H]([C@@H](C)O)NC2=O)cc1 [drawing 134] (X17-[Orn(4R-OH,5R-OH)]T[Hyp][hTyr(3S-OH,4S-OH)]T[Pro(3S-OH,4S-Me)]; lactam 1-C)	20	1.25	–
CCCCCCCCCCOc1ccc(C(=O)N[C@H]2C[C@@H](O)[C@@H](O)NC(=O)[C@@H]3[C@@H](O)[C@@H](C)CN3C(=O)[C@H]([C@@H](C)O)NC(=O)[C@H]([C@H](O)[C@@H](O)c3ccc(O)cc3)NC(=O)[C@@H]3C[C@@H](O)CN3C(=O)[C@H]([C@@H](C)O)NC2=O)cc1 [drawing 116] ({Benzoyl(4-OC10H21)}-[Orn(4R-OH,5R-OH)]T[Hyp][hTyr(3S-OH,4S-OH)]T[Pro(3S-OH,4S-Me)]; lactam 1-C)	0.156	< 0.078	–
CCCCCCCCCCCCOc1ccc(CCC(=O)N[C@H]2C[C@@H](O)[C@@H](O)NC(=O)[C@@H]3[C@@H](O)[C@@H](C)CN3C(=O)[C@H]([C@@H](C)O)NC(=O)[C@H]([C@H](O)[C@@H](O)c3ccc(O)cc3)NC(=O)[C@@H]3C[C@@H](O)CN3C(=O)[C@H]([C@@H](C)O)NC2=O)cc1 [drawing 173] (X22-[Orn(4R-OH,5R-OH)]T[Hyp][hTyr(3S-OH,4S-OH)]T[Pro(3S-OH,4S-Me)]; lactam 1-C)	–	–	4.5
CCCCCCCCOc1ccc(CCC(=O)N[C@H]2C[C@@H](O)[C@@H](O)NC(=O)[C@@H]3[C@@H](O)[C@@H](C)CN3C(=O)[C@H]([C@@H](C)O)NC(=O)[C@H]([C@H](O)[C@@H](O)c3ccc(O)cc3)NC(=O)[C@@H]3C[C@@H](O)CN3C(=O)[C@H]([C@@H](C)O)NC2=O)cc1 [drawing 172] (X21-[Orn(4R-OH,5R-OH)]T[Hyp][hTyr(3S-OH,4S-OH)]T[Pro(3S-OH,4S-Me)]; lactam 1-C)	–	–	4.5
